This is an account of results in paper PMC4040332 (ChemMedChem, 2013).

≈ marks a conversion by molar mass, not a printed value.

Data set [1] deals with GR from B. anthracis (RacE2). The data set is classed as biochemical. Particulars: RacE2, Figure 1.
Data set [2] deals with GR from B. anthracis (RacE1). The format is biochemical. Conditions: RacE1, Figure 1.
For data set [3], the system named is GR from F. tularensis (MurI). The data set is classed as biochemical. Conditions: Figure 1.
In a further data set the target is GR from B. subtilis (Bacillus subtilis, UniProt P94556).
Another data set has as its system B. subtilis DB104. Briefly: Inhibition of bacterial growth. Conditions: Bacillus subtilis, DB104, 24 h, read-out: MIC50 B. subtilis.

Chain of GR from B. subtilis (P94556 whole entry): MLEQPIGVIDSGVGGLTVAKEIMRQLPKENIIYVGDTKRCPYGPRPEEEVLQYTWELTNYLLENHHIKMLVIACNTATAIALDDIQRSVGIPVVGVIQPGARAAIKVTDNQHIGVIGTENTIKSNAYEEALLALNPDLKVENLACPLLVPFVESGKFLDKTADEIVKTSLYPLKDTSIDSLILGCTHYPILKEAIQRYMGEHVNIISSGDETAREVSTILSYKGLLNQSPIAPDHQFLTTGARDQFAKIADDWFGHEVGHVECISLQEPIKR

Broadly, the MIC50 is the lowest concentration that inhibits either 50% of growth or 50% of the strains tested, depending on the study. As for `O=S(=O)(O)c1nc2ccccc2[nH]1` [Compound 2, 1H-benzimidazole-2-sulfonic acid], the “potency compared with GR from B. subtilis” value in data set [1], in data set [2] and in data set [3] was “equal potency” in each case. For the same compound, at GR from B. subtilis (Ki converted to binding energy, divided by number of non-hydrogen atoms), the “LE (ligand efficiency)” value is given as 0.53 kcal/mol/atom. The “LiPE (lipophilic efficiency)” value at GR from B. subtilis (from log(Ki) and logP calculated with MarvinSketch) was 5.3. Besides, the MIC50 in the data set on B. subtilis DB104 stood at 720 ± 60 µg/mL (≈ 3.63 mM).
